The results in this text go back to ChEMBL document CHEMBL4651402, “Screening of ~5500 FDA-approved drugs and clinical candidates for anti-SARS-CoV-2 activity” (2021).

For orientation: pIC50 means the negative decadic logarithm of the IC50, by convention in mol/L.

Each structure is given as a SMILES string. pIC50: −log10 of the molar value.

The test system of one test is SARS-CoV-2. Briefly: microbe, parasite or virus in culture. The following applies: Severe acute respiratory syndrome coronavirus 2, Vero C1008, 48 h.
Take `CCC1(c2ccccc2)C(=O)NC(=O)NC1=O` [PHENOBARBITAL]: the pIC50 is less than 4.70.
For the compound `NC(C=O)C(O)C(O)C(O)CO` (configuration not stated), the pIC50 was less than 4.70.
With `O=C(Nc1c(Cl)cncc1Cl)c1ccc(OC(F)F)c(OCC2CC2)c1` [ROFLUMILAST], the pIC50 is less than 4.70.
`CC1CCN(CCCC(=O)c2ccc(F)cc2)CC1` [MELPERONE]: the pIC50 was less than 4.70.
Turning to `CC1(C)C(=O)Nc2cc3[nH]c(-c4ccncc4)nc3cc21` [ADIBENDAN], the pIC50 was less than 4.70.
In the case of `CC(C)OC(=O)CCC/C=C\C[C@@H]1[C@@H](CC[C@@H](O)CCc2ccccc2)[C@H](O)C[C@@H]1O` [LATANOPROST], the pIC50 was less than 4.70.
Still for that read-out and setting: the same measure for `Cc1nc2cc(C(c3ccccc3)n3ccnc3)ccc2[nH]1` (configuration not stated) [IRTEMAZOLE]: less than 4.70; for `C=CCN1CCc2nc(N)sc2CC1` [TALIPEXOLE]: less than 4.70.
On the same count and under the same terms, the value for `Cc1cn(Cc2ccc(Cl)cc2Cl)c2c(/C=C/C(=O)NS(=O)(=O)c3cc(Cl)c(Cl)s3)cc(F)cc12` was less than 4.70.
As to `C[C@H]1CC[C@]2(NC1)O[C@H]1C[C@H]3[C@@H]4CC[C@H]5C[C@@H](O)CC[C@]5(C)[C@H]4CC[C@]3(C)[C@H]1[C@@H]2C` [TOMATIDINE], the negative logarithm of the IC50 (pIC50) is less than 4.70.
Compound `CC(C)(O)CNc1nc(Nc2ccnc(C(F)(F)F)c2)nc(-c2cccc(C(F)(F)F)n2)n1` [ENASIDENIB] had a pIC50 of less than 4.70.
The same measure, in the same setting: the same measure for `O=c1[nH]c2cc(-n3ccnc3)c([N+](=O)[O-])cc2[nH]c1=O` [YM-90K]: less than 4.70.
Take `CCCCN(CCCC)C(C(N)=O)c1ccc(OC)cc1` (configuration not stated) [AMBUCETAMIDE]: the pIC50 is less than 4.70.
`C[C@H](CCC(=O)NCCS(=O)(=O)O)[C@H]1CC[C@H]2[C@@H]3[C@@H](O)CC4C[C@H](O)CC[C@]4(C)[C@H]3CC[C@]12C` (some centres not stated) showed a pIC50 of less than 4.70.
Compound `CSC[C@H](NC(=O)COc1cccc2cnccc12)C(=O)N[C@@H](Cc1ccccc1)[C@H](O)C(=O)N1CSC[C@H]1C(=O)NC(C)(C)C` showed a pIC50 of less than 4.70.
Compound `O=C(N[C@H]1CCS[C@H]2CCC[C@@H](C(=O)O)N2C1=O)[C@@H](S)Cc1ccccc1` [OMAPATRILAT] showed a pIC50 of less than 4.70.
For `c1ccc(CC2=NCCN2)cc1` [TOLAZOLINE], the pIC50 is less than 4.70.
Compound `NC(C(=O)NC1C(=O)N2C(C(=O)O)=C(CSc3c[nH]nn3)CSC12)c1ccc(O)cc1` (configuration not stated) showed a pIC50 of less than 4.70.
As to `CCC1(CC)C(=O)NC(=S)NC1=O`, the pIC50 was less than 4.70.
Turning to `CN1CCN(c2c(F)cc3c(=O)c(C(=O)O)cn4c3c2OCN4C)CC1` [MARBOFLOXACIN], the pIC50 is less than 4.70.
Compound `CCCCC[C@H](O)/C=C/[C@@H]1[C@@H](C/C=C\CCCC(=O)O)[C@@H](O)C[C@H]1O` [DINOPROST] showed a pIC50 of less than 4.70.
Consider `NCc1c[nH]c(=S)n1[C@H]1CCc2c(F)cc(F)cc2C1`, for which the pIC50 was less than 4.70.
`Cc1csc(Cl)c1NC1=NCCN1` [TIAMENIDINE]: the pIC50 is less than 4.70.
The compound `Cc1cc(NC(=O)NCCN2CCC(O)(Cc3ccccc3)CC2)c2ccccc2n1` [PALOSURAN] had a pIC50 of less than 4.70.
As to `CC1C(=O)OC2CCN3CC=C(COC(=O)C(C)(O)C1(C)O)C23` (configuration not stated), the pIC50 is less than 4.70.
On the same count and under the same terms, the same measure for `Cc1ccc2c(c1)CC(=O)c1cc(C(C)C(=O)O)ccc1O2` (configuration not stated) [BERMOPROFEN]: less than 4.70.
`Oc1ccc(Cl)cc1Cc1cc(Cl)ccc1O` [DICHLOROPHEN] had a pIC50 of less than 4.70.
Compound `O=P(O)(O)OC[C@H]1OC(O)[C@H](O)[C@@H](O)[C@@H]1O` (some centres not stated) showed a pIC50 of less than 4.70.
In the case of `CC1=CC(=O)C2=C(C)C[C@H](O)[C@@H]3[C@H](OC(=O)[C@H]3C)[C@@H]12` [AUSTRICIN], the pIC50 is less than 4.70.
`CN(CC(=O)O)C(=N)N` [CREATINE]: the pIC50 was less than 4.70.
Consider `CC(C)Nc1ncccn1` [ISAXONINE], for which the pIC50 is less than 4.70.

The test is the same for the next values; noted with them: Severe acute respiratory syndrome coronavirus 2, Vero C1008, 48 h, read-out: pIC50 (converted).
As for `CCC1(c2ccccc2)C(=O)NC(=O)NC1=O` [PHENOBARBITAL], the IC50 was more than 20 µM.
As to `NC(C=O)C(O)C(O)C(O)CO` (configuration not stated), the IC50 is more than 20 µM.
With `O=C(Nc1c(Cl)cncc1Cl)c1ccc(OC(F)F)c(OCC2CC2)c1` [ROFLUMILAST], the IC50 was more than 20 µM.
`CC1CCN(CCCC(=O)c2ccc(F)cc2)CC1` [MELPERONE]: the IC50 was more than 20 µM.
On to `CC1(C)C(=O)Nc2cc3[nH]c(-c4ccncc4)nc3cc21` [ADIBENDAN], for which the IC50 is more than 20 µM.
Same read-out and setting: the same measure for `CC(C)OC(=O)CCC/C=C\C[C@@H]1[C@@H](CC[C@@H](O)CCc2ccccc2)[C@H](O)C[C@@H]1O` [LATANOPROST]: more than 20 µM; for `Cc1nc2cc(C(c3ccccc3)n3ccnc3)ccc2[nH]1` (configuration not stated) [IRTEMAZOLE]: more than 20 µM.
Consider `C=CCN1CCc2nc(N)sc2CC1` [TALIPEXOLE], for which the IC50 is more than 20 µM.
As to `Cc1cn(Cc2ccc(Cl)cc2Cl)c2c(/C=C/C(=O)NS(=O)(=O)c3cc(Cl)c(Cl)s3)cc(F)cc12`, the IC50 was more than 20 µM.
On to `C[C@H]1CC[C@]2(NC1)O[C@H]1C[C@H]3[C@@H]4CC[C@H]5C[C@@H](O)CC[C@]5(C)[C@H]4CC[C@]3(C)[C@H]1[C@@H]2C` [TOMATIDINE], for which the IC50 is more than 20 µM.
For the compound `CC(C)(O)CNc1nc(Nc2ccnc(C(F)(F)F)c2)nc(-c2cccc(C(F)(F)F)n2)n1` [ENASIDENIB], the IC50 was more than 20 µM.
`O=c1[nH]c2cc(-n3ccnc3)c([N+](=O)[O-])cc2[nH]c1=O` [YM-90K]: the IC50 was more than 20 µM.
Turning to `CCCCN(CCCC)C(C(N)=O)c1ccc(OC)cc1` (configuration not stated) [AMBUCETAMIDE], the IC50 is more than 20 µM.
Take `C[C@H](CCC(=O)NCCS(=O)(=O)O)[C@H]1CC[C@H]2[C@@H]3[C@@H](O)CC4C[C@H](O)CC[C@]4(C)[C@H]3CC[C@]12C` (some centres not stated): the IC50 is more than 20 µM.
For the compound `CSC[C@H](NC(=O)COc1cccc2cnccc12)C(=O)N[C@@H](Cc1ccccc1)[C@H](O)C(=O)N1CSC[C@H]1C(=O)NC(C)(C)C`, the IC50 was more than 20 µM.
Still for that read-out and setting: the same measure for `O=C(N[C@H]1CCS[C@H]2CCC[C@@H](C(=O)O)N2C1=O)[C@@H](S)Cc1ccccc1` [OMAPATRILAT]: more than 20 µM.
Regarding `c1ccc(CC2=NCCN2)cc1` [TOLAZOLINE], the IC50 was more than 20 µM.
`NC(C(=O)NC1C(=O)N2C(C(=O)O)=C(CSc3c[nH]nn3)CSC12)c1ccc(O)cc1` (configuration not stated): the IC50 was more than 20 µM.
Same read-out and setting: the same measure for `CCC1(CC)C(=O)NC(=S)NC1=O`: more than 20 µM.
The same measure, in the same setting: the value for `CN1CCN(c2c(F)cc3c(=O)c(C(=O)O)cn4c3c2OCN4C)CC1` [MARBOFLOXACIN] was more than 20 µM.
As to `CCCCC[C@H](O)/C=C/[C@@H]1[C@@H](C/C=C\CCCC(=O)O)[C@@H](O)C[C@H]1O` [DINOPROST], the IC50 is more than 20 µM.
As for `NCc1c[nH]c(=S)n1[C@H]1CCc2c(F)cc(F)cc2C1`, the IC50 is more than 20 µM.
As to `Cc1csc(Cl)c1NC1=NCCN1` [TIAMENIDINE], the IC50 was more than 20 µM.
As for `Cc1cc(NC(=O)NCCN2CCC(O)(Cc3ccccc3)CC2)c2ccccc2n1` [PALOSURAN], the IC50 is more than 20 µM.
For `CC1C(=O)OC2CCN3CC=C(COC(=O)C(C)(O)C1(C)O)C23` (configuration not stated), the IC50 was more than 20 µM.
Take `Cc1ccc2c(c1)CC(=O)c1cc(C(C)C(=O)O)ccc1O2` (configuration not stated) [BERMOPROFEN]: the IC50 was more than 20 µM.
Turning to `Oc1ccc(Cl)cc1Cc1cc(Cl)ccc1O` [DICHLOROPHEN], the IC50 is more than 20 µM.
The same measure, in the same setting: the same measure for `O=P(O)(O)OC[C@H]1OC(O)[C@H](O)[C@@H](O)[C@@H]1O` (some centres not stated): more than 20 µM; for `CC1=CC(=O)C2=C(C)C[C@H](O)[C@@H]3[C@H](OC(=O)[C@H]3C)[C@@H]12` [AUSTRICIN]: more than 20 µM.
On the same count and under the same terms, the value for `CN(CC(=O)O)C(=N)N` [CREATINE] was more than 20 µM; that for `CC(C)Nc1ncccn1` [ISAXONINE] was more than 20 µM.
